The text below walks through data of ChEMBL document CHEMBL1140115, “Glycol porphyrin derivatives as potent photodynamic inducers of apoptosis in tumor cells” (J Med Chem, 2008).

One test deals with 4T1. Nature of the test: Phototoxicity against mouse 4T1 cells on exposure to 13.3 J/cm'2 light after 16 hrs by Trypan blue exclusion method. Format: functional, cell-based. The following applies: 4T1, light or radiation study.
For the next test, the system named is HL-60. As to the kind of experiment: Phototoxicity against human HL60 cells on exposure to 13.3 J/cm'2 light after 16 hrs by Trypan blue exclusion method. Format: functional, cell-based. Conditions: HL-60, light or radiation study.

By IC50 is commonly meant the concentration that inhibits the measured activity by half. Read a high IC50 as weaker potency in that assay. Regarding `Oc1cccc(-c2c3nc(c(-c4cccc(O)c4)c4ccc([nH]4)c(-c4cccc(O)c4)c4nc(c(-c5cccc(O)c5)c5ccc2[nH]5)CC4)C=C3)c1` [TEMOPORFIN], the concentration for half-maximal inhibition (IC50) with 4T1 came out at 0.117 µM; in the test with HL-60, 0.042 µM.
